Experimental data taken from patent publication US11028079B2 (ConverGene LLC, priority 2015, dated 2021).

What follows are compounds tested against T1, BRD4 bromodomains (Homo sapiens, UniProt O60885) (assay: BROMOscan bromodomain competition binding assay (DiscoveRx)). Settings: Kd from 11 compound concentrations ranging from 0 to 10 μM, read-out: BROMOscan Relative Activity.
T1 construct: fused on or other part: T7 phage capsid protein (phage-display fusion; the phage DNA is read out by qPCR)
Outline: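 Compounds in 0.1% DMSO/0.9% MEG competed with a solid-phase acetylated peptide for T7 phage-fused BRD4 bromodomains, with the retained bromodomain measured by qPCR.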
With `Cc1noc(C)c1-c1ccc2nc(C3=CCNCC3)nc(NCc3cccc(Cl)c3)c2c1` [Example 31, N-(3-chlorobenzyl)-6-(3,5-dimethylisoxazol-4-yl)-2-(1,2,3,6-tetrahydropyridin-4-yl)quinazolin-4-amine] the Kd was under 500 nM.
`Cn1cc(-c2ccc3nc(-c4cnn(CC(C)(C)O)c4)nc(NCc4cccc(Cl)c4)c3c2)ccc1=O` [Example 103, 5-(4-((3-chlorobenzyl)amino)-2-(1-(2-hydroxy-2-methylpropyl)-1H-pyrazol-4-yl)quinazolin-6-yl)-1-methylpyridin-2(1H)-one] showed a Kd of under 500 nM.
For `Cc1ncc(CNC(=O)c2nc(NCc3cccc(Cl)c3)c3cc(-c4c(C)noc4C)ccc3n2)s1` [Example 212, 4-((3-chlorobenzyl)amino)-6-(3,5-dimethylisoxazol-4-yl)-N-((2-methylthiazol-5-yl)methyl)quinazoline-2-carboxamide], the Kd was under 500 nM.
`Cc1noc(C)c1-c1ccc2cc(N3CCN(CCN(C)C)CC3)nc(NCc3cccc(Cl)c3)c2c1` [Example 43, N-(3-chlorobenzyl)-3-(4-(2-(dimethylamino)ethyl)piperazin-1-yl)-7-(3,5-dimethylisoxazol-4-yl)isoquinolin-1-amine] gave a Kd of 500 to 5000 nM.
`CCNC(=O)N1CCN(c2nc(N3CCOC[C@@H]3c3ccccc3)c3cc(-c4c(C)noc4C)ccc3n2)CC1` [Example 299, (S)-4-(6-(3,5-dimethylisoxazol-4-yl)-4-(3-phenylmorpholino)quinazolin-2-yl)-N-ethylpiperazine-1-carboxamide] gave a Kd of under 500 nM.
Compound `Cc1n[nH]c(C)c1CNC(=O)c1nc(NCc2cccc(Cl)c2)c2cc(-c3c(C)noc3C)ccc2n1` [Example 257, 4-((3-chlorobenzyl)amino)-N-((3,5-dimethyl-1H-pyrazol-4-yl)methyl)-6-(3,5-dimethylisoxazol-4-yl)quinazoline-2-carboxamide] has a Kd of under 500 nM.
Compound `CNC(=O)C1CCN(c2nc(N3CCOC[C@@H]3c3ccccc3)c3cc(-c4c(C)noc4C)ccc3n2)CC1` [Example 296, (S)-1-(6-(3,5-dimethylisoxazol-4-yl)-4-(3-phenylmorpholino)quinazolin-2-yl)-N-methylpiperidine-4-carboxamide] has a Kd of under 500 nM.
Compound `Cc1ccncc1NC(=O)c1nc(NCc2cccc(Cl)c2)c2cc(-c3c(C)noc3C)ccc2n1` [Example 220, 4-((3-chlorobenzyl)amino)-6-(3,5-dimethylisoxazol-4-yl)-N-(4-methylpyridin-3-yl)quinazoline-2-carboxamide] has a Kd of under 500 nM.
For `Cn1cc(-c2ccc3ncnc(Nc4ccc(Cl)cc4)c3c2)ccc1=O` [Example 159, 5-(4-((4-chlorophenyl)amino)quinazolin-6-yl)-1-methylpyridin-2(1H)-one], the Kd was over 5000 nM.
Work on `Cc1noc(C)c1-c1ccc2nc(-c3cnn(CCO)c3)nc(Nc3ccc(Cl)cc3)c2c1` [Example 150, 2-(4-(4-((4-chlorophenyl)amino)-6-(3,5-dimethylisoxazol-4-yl)quinazolin-2-yl)-1H-pyrazol-1-yl)ethanol] yielded a Kd of 500 to 5000 nM.
`COc1nc(NCc2cccc(Cl)c2)c2cc(-c3c(C)noc3C)ccc2n1` [Example 8, N-(3-chlorobenzyl)-6-(3,5-dimethylisoxazol-4-yl)-2-methoxyquinazolin-4-amine] showed a Kd of under 500 nM.
With `Cc1noc(C)c1-c1ccc2nc(C(=O)NCc3cnn(C)c3)nc(NCc3cccc(Cl)c3)c2c1` [Example 186, 4-((3-chlorobenzyl)amino)-6-(3,5-dimethylisoxazol-4-yl)-N-((1-methyl-1H-pyrazol-4-yl)methyl)quinazoline-2-carboxamide] the Kd was under 500 nM.
For `Cc1noc(C)c1-c1ccc2nc(NCCN3CCN(C)CC3)nc(NCc3cccc(Cl)c3)c2c1` [Example 11, N4-(3-chlorobenzyl)-6-(3,5-dimethylisoxazol-4-yl)-N2-(2-(4-methylpiperazin-1-yl)ethyl)quinazoline-2,4-diamine], the Kd was under 500 nM.
In the case of `Cc1noc(C)c1-c1ccc2nc(N3CCN(CCN(C)C)CC3)nc(NCc3cccc(Cl)c3)c2c1` [Example 12, N-(3-chlorobenzyl)-2-(4-(2-(dimethylamino)ethyl)piperazin-1-yl)-6-(3,5-dimethylisoxazol-4-yl)quinazolin-4-amine], the Kd is reported as under 500 nM.
`Cc1noc(C)c1-c1ccc2nc(C(=O)N3CCc4[nH]ncc4C3)nc(NCc3cncc(Cl)c3)c2c1` [Example 284, (4-(((5-chloropyridin-3-yl)methyl)amino)-6-(3,5-dimethylisoxazol-4-yl)quinazolin-2-yl)(1,4,6,7-tetrahydro-5H-pyrazolo[4,3-c]pyridin-5-yl)methanone] was tested, and the Kd was 500 to 5000 nM.
Compound `Cc1noc(C)c1-c1ccc2nc(N3CCN(CCN(C)C)CC3)nc(NC(C)c3cccs3)c2c1` (stereo not drawn) [Example 89, 2-(4-(2-(dimethylamino)ethyl)piperazin-1-yl)-6-(3,5-dimethylisoxazol-4-yl)-N-(1-(thiophen-2-yl)ethyl)quinazolin-4-amine] has a Kd of under 500 nM.
Compound `Cc1noc(C)c1-c1ccc2nc(N3CCN(CCN(C)C)CC3)nc(N3CC(Cc4ccccc4)C3)c2c1` [Example 161, 2-(4-(4-(3-benzylazetidin-1-yl)-6-(3,5-dimethylisoxazol-4-yl)quinazolin-2-yl)piperazin-1-yl)-N,N-dimethylethanamine] has a Kd of 500 to 5000 nM.
With `Cc1noc(C)c1-c1ccc2nc(C(=O)NCc3ncc[nH]3)nc(NCc3cccc(Cl)c3)c2c1` [Example 177, N-((1H-imidazol-2-yl)methyl)-4-((3-chlorobenzyl)amino)-6-(3,5-dimethylisoxazol-4-yl)quinazoline-2-carboxamide] the Kd was under 500 nM.
In the case of `Cc1noc(C)c1-c1ccc2nc(NCc3cccc(Cl)c3)cc(N3CCN(CCN(C)C)CC3)c2c1` [Example 27, N-(3-chlorobenzyl)-4-(4-(2-(dimethylamino)ethyl)piperazin-1-yl)-6-(3,5-dimethylisoxazol-4-yl)quinolin-2-amine], the Kd is reported as 500 to 5000 nM.
With `Cc1noc(C)c1-c1ccc2nc(C(=O)NCc3cncn3C)nc(NCc3cccc(Cl)c3)c2c1` [Example 183, 4-((3-chlorobenzyl)amino)-6-(3,5-dimethylisoxazol-4-yl)-N-((1-methyl-1H-imidazol-5-yl)methyl)quinazoline-2-carboxamide] the Kd was under 500 nM.
`Cc1nc(C)c(CNC(=O)c2nc(NCc3cccc(Cl)c3)c3cc(-c4c(C)noc4C)ccc3n2)s1` [Example 260, 4-((3-chlorobenzyl)amino)-6-(3,5-dimethylisoxazol-4-yl)-N-((2,4-dimethylthiazol-5-yl)methyl)quinazoline-2-carboxamide] was tested, and the Kd was under 500 nM.
With `Cc1noc(C)c1-c1ccc2nc(N3CCN(S(C)(=O)=O)CC3)nc(NC3(c4cccc(Cl)c4)CC3)c2c1` [Example 180, N-(1-(3-chlorophenyl)cyclopropyl)-6-(3,5-dimethylisoxazol-4-yl)-2-(4-(methylsulfonyl)piperazin-1-yl)quinazolin-4-amine] the Kd was under 500 nM.
`Cc1noc(C)c1-c1ccc2nc(-c3cnn(C4COC4)c3)nc(NCc3cccc(Cl)c3)c2c1` [Example 61, N-(3-chlorobenzyl)-6-(3,5-dimethylisoxazol-4-yl)-2-(1-(oxetan-3-yl)-1H-pyrazol-4-yl)quinazolin-4-amine] showed a Kd of under 500 nM.
Work on `Cc1noc(C)c1-c1ccc2nc(C(=O)NCc3cncc(F)c3)nc(NCc3cccc(Cl)c3)c2c1` [Example 192, 4-((3-chlorobenzyl)amino)-6-(3,5-dimethylisoxazol-4-yl)-N-((5-fluoropyridin-3-yl)methyl)quinazoline-2-carboxamide] yielded a Kd of under 500 nM.
`Cc1noc(C)c1-c1ccc2nc(C(=O)NCC3CC(F)(F)C3)nc(NCc3cccc(Cl)c3)c2c1` [Example 256, 4-((3-chlorobenzyl)amino)-N-((3,3-difluorocyclobutyl)methyl)-6-(3,5-dimethylisoxazol-4-yl)quinazoline-2-carboxamide] gave a Kd of 500 to 5000 nM.
`Cc1noc(C)c1-c1ccc2nc(-c3cnn(CCO)c3)nc(NCc3cncc(Cl)c3)c2c1` [Example 144, 2-(4-(4-(((5-chloropyridin-3-yl)methyl)amino)-6-(3,5-dimethylisoxazol-4-yl)quinazolin-2-yl)-1H-pyrazol-1-yl)ethanol] showed a Kd of under 500 nM.
With `Cc1noc(C)c1-c1ccc2nc(C(=O)N[C@H]3CC[C@H](O)CC3)cc(NCc3cccc(Cl)c3)c2c1` [Example 274, 4-((3-chlorobenzyl)amino)-6-(3,5-dimethylisoxazol-4-yl)-N-((trans)-4-hydroxycyclohexyl)quinoline-2-carboxamide] the Kd was under 500 nM.
With `Cc1noc(C)c1-c1ccc2ncnc(Nc3ccc(Cl)cc3)c2c1` [Example 158, N-(4-chlorophenyl)-6-(3,5-dimethylisoxazol-4-yl)quinazolin-4-amine] the Kd was 500 to 5000 nM.
With `Cc1noc(C)c1-c1ccc2nc(-c3cnn(CCO)c3)nc(N3CCC(C(=O)O)CC3)c2c1` [Example 255, 1-(6-(3,5-dimethylisoxazol-4-yl)-2-(1-(2-hydroxyethyl)-1H-pyrazol-4-yl)quinazolin-4-yl)piperidine-4-carboxylic acid] the Kd was 500 to 5000 nM.
For `Cc1noc(C)c1-c1ccc2nc(Cl)nc(NCc3cccc(Cl)c3)c2c1` [Example 1, 2-chloro-N-(3-chlorobenzyl)-6-(3,5-dimethylisoxazol-4-yl)quinazolin-4-amine], the Kd was 500 to 5000 nM.
`Cc1noc(C)c1-c1ccc2nc(C(=O)NC3CCOCC3)cc(NCc3cccc(Cl)c3)c2c1` [Example 236, 4-((3-chlorobenzyl)amino)-6-(3,5-dimethylisoxazol-4-yl)-N-(tetrahydro-2H-pyran-4-yl)quinoline-2-carboxamide] showed a Kd of under 500 nM.
Work on `CNC(=O)Cn1cc(-c2nc(NCc3cccc(Cl)c3)c3cc(-c4ccc(=O)n(C)c4)ccc3n2)cn1` [Example 102, 2-(4-(4-((3-chlorobenzyl)amino)-6-(1-methyl-6-oxo-1,6-dihydropyridin-3-yl)quinazolin-2-yl)-1H-pyrazol-1-yl)-N-methylacetamide] yielded a Kd of under 500 nM.
For `Cc1noc(C)c1-c1ccc2nc(N3CCS(=O)(=O)CC3)nc(NCc3cccc(Cl)c3)c2c1` [Example 243, 4-(4-((3-chlorobenzyl)amino)-6-(3,5-dimethylisoxazol-4-yl)quinazolin-2-yl)thiomorpholine 1,1-dioxide], the Kd was 500 to 5000 nM.
